Laboratory results taken from ChEMBL document CHEMBL1136297, “Synthesis and pharmacological evaluation of (Z)-9-(heteroarylmethylene)-7-azatricyclo[4.3.1.0(3,7)]decanes: thiophene analogues as potent norepinephrine transporter inhibitors” (Bioorg Med Chem Lett, 2003).

Legend:
[1] = target: Sodium-dependent dopamine transporter (Rattus norvegicus, UniProt P23977); experiment: Ability to inhibit reuptake of dopamine ([3H]DA) at dopamine transporter of rat striatum; format: tissue-based
[2] = target: Sodium-dependent serotonin transporter (Rattus norvegicus, UniProt P31652); experiment: Ability to inhibit reuptake of serotonin ([3H]5-HT) at serotonin transporter of rat midbrian
Sodium-dependent serotonin transporter, sequence (P31652 whole entry): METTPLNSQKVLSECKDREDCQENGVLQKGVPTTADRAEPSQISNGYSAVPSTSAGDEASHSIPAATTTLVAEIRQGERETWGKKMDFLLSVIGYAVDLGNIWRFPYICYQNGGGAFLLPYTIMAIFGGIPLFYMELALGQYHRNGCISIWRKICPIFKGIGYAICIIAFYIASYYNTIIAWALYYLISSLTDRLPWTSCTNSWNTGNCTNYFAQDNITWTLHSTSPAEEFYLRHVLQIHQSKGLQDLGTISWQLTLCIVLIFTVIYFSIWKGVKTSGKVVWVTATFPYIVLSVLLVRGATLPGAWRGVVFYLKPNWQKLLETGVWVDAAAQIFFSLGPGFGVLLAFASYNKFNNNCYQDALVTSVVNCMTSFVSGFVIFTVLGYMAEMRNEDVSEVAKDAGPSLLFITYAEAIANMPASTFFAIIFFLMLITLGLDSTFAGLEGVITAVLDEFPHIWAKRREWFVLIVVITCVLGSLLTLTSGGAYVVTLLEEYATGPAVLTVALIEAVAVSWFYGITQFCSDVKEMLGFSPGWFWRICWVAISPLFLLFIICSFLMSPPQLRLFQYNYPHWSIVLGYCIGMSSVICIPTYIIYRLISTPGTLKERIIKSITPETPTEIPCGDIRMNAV

[3] = Inhibition of reuptake of serotonin compared to dopamine.; format: functional
[4] = Inhibition of reuptake of norepinephrine compared to dopamine.; format: functional
[5] = Inhibition of reuptake of norepinephrine compared to serotonin.; format: functional
[6] = target: Norepinephrine transporter (Rattus norvegicus, UniProt Q9WTR4); experiment: Ability to inhibit reuptake of norepinephrine ([3H]NE) at norepinephrine transporter of rat parietal/occipital region
Norepinephrine transporter, sequence (Q9WTR4 whole entry): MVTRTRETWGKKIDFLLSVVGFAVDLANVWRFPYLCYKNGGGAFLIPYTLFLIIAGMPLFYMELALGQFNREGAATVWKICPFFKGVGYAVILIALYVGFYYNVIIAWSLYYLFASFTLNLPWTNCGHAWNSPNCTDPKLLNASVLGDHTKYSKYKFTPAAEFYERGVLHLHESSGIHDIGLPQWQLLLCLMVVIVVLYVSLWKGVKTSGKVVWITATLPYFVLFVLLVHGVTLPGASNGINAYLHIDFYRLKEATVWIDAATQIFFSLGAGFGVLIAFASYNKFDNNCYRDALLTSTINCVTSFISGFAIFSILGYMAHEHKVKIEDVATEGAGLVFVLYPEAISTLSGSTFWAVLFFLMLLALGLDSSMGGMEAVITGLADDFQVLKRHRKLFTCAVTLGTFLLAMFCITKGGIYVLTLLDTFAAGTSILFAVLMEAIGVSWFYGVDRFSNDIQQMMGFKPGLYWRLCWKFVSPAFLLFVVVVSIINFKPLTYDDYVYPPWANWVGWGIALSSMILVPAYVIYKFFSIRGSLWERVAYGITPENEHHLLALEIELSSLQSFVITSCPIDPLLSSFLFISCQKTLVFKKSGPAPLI

[7] = Ratio of inhibitory activity against reuptake of norepinephrine ([3H]-NE) to that of serotonin ([3H]-5-HT)[…]; format: functional

Sodium-dependent dopamine transporter, sequence (P23977 whole entry): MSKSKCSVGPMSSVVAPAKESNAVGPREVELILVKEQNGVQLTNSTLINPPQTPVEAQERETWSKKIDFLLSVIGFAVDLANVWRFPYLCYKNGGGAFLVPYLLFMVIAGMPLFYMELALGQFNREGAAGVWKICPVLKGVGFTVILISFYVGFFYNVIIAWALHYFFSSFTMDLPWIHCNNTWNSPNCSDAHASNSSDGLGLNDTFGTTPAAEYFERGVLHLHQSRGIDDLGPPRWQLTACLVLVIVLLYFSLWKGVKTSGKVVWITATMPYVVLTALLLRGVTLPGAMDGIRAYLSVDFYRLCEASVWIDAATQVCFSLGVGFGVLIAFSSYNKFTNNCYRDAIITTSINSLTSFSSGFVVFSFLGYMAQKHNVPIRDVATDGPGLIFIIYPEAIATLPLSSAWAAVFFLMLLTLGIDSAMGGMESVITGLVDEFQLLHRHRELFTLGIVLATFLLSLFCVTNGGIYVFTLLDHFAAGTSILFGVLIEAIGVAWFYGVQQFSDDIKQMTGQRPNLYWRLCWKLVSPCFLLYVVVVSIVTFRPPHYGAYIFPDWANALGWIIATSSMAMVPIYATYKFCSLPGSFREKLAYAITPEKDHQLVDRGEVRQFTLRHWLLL

COC(=O)C1C2CC3CCC1N3C/C2=C\c1ccc(-c2cccs2)s1 (stereo unspecified)
Ki [1]: 298 nM
Ki [2]: 48 nM
Ratio [3]: 0.16
Ratio [4]: 0.33
Ratio [5]: 2.04
Ki [6]: 98 nM

COC(=O)C1C2CC3CCC1N3C/C2=C\c1cnc(OC)nc1OC (stereo unspecified)
Ki [1]: > 10000 nM
Ki [2]: 5140 nM
Ratio [7]: 1.84
Ki [6]: 9450 nM

COC(=O)C1C2CC3CCC1N3C/C2=C\c1ccc(I)s1 (stereo unspecified)
Ratio [3]: 0.08
Ratio [4]: 0.01
Ratio [5]: 0.17

COC(=O)C1C2CC3CCC1N3C/C2=C\c1ccc(-c2ccc(OC)cc2)s1 (stereo unspecified)
Ki [1]: 371 nM
Ki [2]: 531 nM
Ratio [3]: 1.43
Ratio [4]: 0.03
Ratio [5]: 0.02
Ki [6]: 10.3 nM

COC(=O)C1C2CC3CCC1N3C/C2=C\c1ccc(C)s1 (stereo unspecified)
Ratio [3]: 0.44
Ratio [4]: 0.01
Ratio [5]: 0.03

COC(=O)C1C2CC3CCC1N3C/C2=C\c1ccc(OC)s1 (stereo unspecified)
Ki [1]: > 10000 nM
Ki [2]: 544 nM
Ratio [7]: 4.12
Ki [6]: 2250 nM

COC(=O)C1C2CC3CCC1N3C/C2=C\c1ccc(Cl)s1 (stereo unspecified)
Ki [1]: 130 nM
Ki [2]: 53 nM
Ratio [3]: 0.41
Ratio [4]: 0.07
Ratio [5]: 0.18
Ki [6]: 9.7 nM

COC(=O)C1C2CC3CCC1N3C/C2=C\c1cnccn1 (stereo unspecified)
Ki [1]: 6570 nM
Ki [2]: 7140 nM
Ratio [3]: 1.09
Ratio [4]: 0.29
Ratio [5]: 0.27
Ki [6]: 1930 nM

COC(=O)C1C2CC3CCC1N3C/C2=C\c1cc(C)c(Br)s1 (stereo unspecified)
Ki [1]: 1280 nM
Ki [2]: 6.75 nM
Ratio [3]: 0.01
Ratio [4]: 0.03
Ratio [5]: 5.45
Ki [6]: 36.8 nM

COC(=O)C1C2CC3CCC1N3C/C2=C\c1nccs1 (stereo unspecified)
Ki [1]: 5090 nM
Ki [2]: > 10000 nM
Ratio [7]: 0.17
Ki [6]: 855 nM

CCc1ccc(/C=C2\CN3C4CCC3C(C(=O)OC)C2C4)s1 (stereo unspecified)
Ki [1]: > 10000 nM
Ki [2]: 346 nM
Ratio [7]: 6.16
Ki [6]: 2130 nM

COC(=O)C1C2CC3CCC1N3C/C2=C\c1cccs1 (stereo unspecified)
Ratio [3]: 7.63
Ratio [4]: 0.1
Ratio [5]: 0.01

COC(=O)C1C2CC3CCC1N3C/C2=C\c1ccc(-c2ccccc2)s1 (stereo unspecified)
Ki [1]: 179 nM
Ki [2]: 71 nM
Ratio [3]: 0.4
Ratio [4]: 0.08
Ratio [5]: 0.19
Ki [6]: 13.5 nM

CCCCc1ccc(/C=C2\CN3C4CCC3C(C(=O)OC)C2C4)s1 (stereo unspecified)
Ki [1]: 4700 nM
Ki [2]: 665 nM
Ratio [3]: 0.14
Ratio [4]: 0.08
Ratio [5]: 0.55
Ki [6]: 364 nM

COC(=O)C1C2CC3CCC1N3C/C2=C\c1ccsc1 (stereo unspecified)
Ki [1]: 485 nM
Ki [2]: 3140 nM
Ratio [3]: 6.47
Ratio [4]: 0.07
Ratio [5]: 0.01
Ki [6]: 33 nM

CCCc1ccc(/C=C2\CN3C4CCC3C(C(=O)OC)C2C4)s1 (stereo unspecified)
Ki [1]: 1600 nM
Ki [2]: 269 nM
Ratio [3]: 0.17
Ratio [4]: 0.39
Ratio [5]: 2.32
Ki [6]: 624 nM

COC(=O)C1C2CC3CCC1N3C/C2=C\c1ccc(-c2ccc(SC)cc2)s1 (stereo unspecified)
Ki [1]: 1650 nM
Ki [2]: 3320 nM
Ratio [3]: 2.01
Ratio [4]: 0.16
Ratio [5]: 0.08
Ki [6]: 273 nM

COC(=O)C1C2CC3CCC1N3C/C2=C\c1ccc(-c2ccc(Cl)s2)s1 (stereo unspecified)
Ki [1]: 242 nM
Ki [2]: 93 nM
Ratio [3]: 0.38
Ratio [4]: 0.24
Ratio [5]: 0.62
Ki [6]: 58 nM

COC(=O)C1C2CC3CCC1N3C/C2=C\c1cccc(OC)n1 (stereo unspecified)
Ki [1]: 14000 nM
Ki [2]: 477 nM
Ratio [3]: 0.03
Ratio [4]: 0.02
Ratio [5]: 0.65
Ki [6]: 308 nM

COC(=O)C1C2CC3CCC1N3C/C2=C\c1cccnc1 (stereo unspecified)
Ki [1]: > 10000 nM
Ki [2]: 4580 nM
Ratio [7]: 2.77
Ki [6]: 12700 nM

COC(=O)C1C2CC3CCC1N3C/C2=C\c1ccc(Cl)nc1 (stereo unspecified)
Ki [1]: > 10000 nM
Ki [2]: 810 nM
Ratio [7]: 8.03
Ki [6]: 6510 nM

COC(=O)C1C2CC3CCC1N3C/C2=C\c1ccccn1 (stereo unspecified)
Ki [2]: 3150 nM
Ratio [3]: 2.97
Ratio [4]: 0.11
Ratio [5]: 0.04
Ki [6]: 115 nM

COC(=O)C1C2CC3CCC1N3C/C2=C\c1ccc(Br)s1 (stereo unspecified)
Ki [1]: 147 nM
Ki [2]: 36 nM
Ratio [3]: 0.24
Ratio [4]: 0.14
Ratio [5]: 0.57
Ki [6]: 20 nM
